Experimental data as given in US10851067B2, “Kv7 channel activators compositions and methods of use” (Knopp Biosciences LLC, priority 2018, dated 2020).

Biological target: Kv7.2/7.3 (Homo sapiens, UniProt O43525+O43526)
Test: Kv7.2/7.3 Activation Assay, QPatch single concentration screen
Type: cell-based
Set-up: host or cells: HEK cells, tetracycline-inducible expression; key: 1.2-2.9 (+); 3-3.9 (++); >4 (+++) fold increase over baseline; O represents open channel at holding potential
Details: Kv7.2/Kv7.3 co-expressing HEK cells, compound concentration 3 μM, steady-state current at end of 2 s pulse to −30 mV
Description: Kv7.2/7.3 Activation Assay
The ability of compounds to potentiate K-currents in Kv7.2/7.3 containing HEK cells was assessed using planar patch-clamp on the QPatch automated screening platform.
The hKv7.2/7.3 cell line was obtained from Chantest (Cleveland, Ohio 44128) cat. #CT6147. These HEK cells will express the Kv7.2/7.3 ion channels when induced.
Cells were maintained in a media containing DMEM/F12; 50/50 (GIBCO cat. #11330), 10% Fetal Bovine Serum (FBS) (GIBCO cat. #26140), 100 units/mL Penicillin-Streptomycin (GIBCO cat. #15140), 0.005 mg/mL Blasticidin (INVIVOGEN cat. #ant-b1-1), 0.5 mg/mL Geneticin (GIBCO cat. #10131), 0.1 mg/mL Zeocin (GIBCO cat. #R25001). Cells used in the electrophysiology assay were maintained in a media without Blasticidin, Geneticin and Zeocin for 2 days and channel expression was induced by adding tetracycline (BIOLINE cat. #BIO-87030) at a final concentration of 1 mg/mL. Cells were grown in T-175 flask to ˜75% confluency. Currents were recorded 24 hours after channel induction.
Test compounds were prepared by performing serial dilutions on a Biomek NX^P (BECKMAN COULTER). Final dilutions were made in external recording solution with a final DMSO concentration of 0.1% DMSO. For single concentration screens each plate had 10 μM retigabine as a positive control and 0.1% DMSO as a negative control.
On the day of the experiment cells were washed with Hank's Balanced Salt Solution (HBBS) (GIBCO cat. #14175) and harvested with Tryple (GIBCO cat. #12604). Cells were then centrifuged at 2000 rpm for 5 minutes and resuspended in CHO-S-SFM (GIBCO cat. #12052) at ˜3×10^6 cells/mL. Cells were stirred for 30 minutes before experiments were started. External recording solution contained (in mM): NaCl (145), KCl (4), CaCl2 (2), MgCl2 (1), HEPES (10) and Glucose (10); pH was adjusted to 7.4 with NaOH and the osmolarity was adjusted to 300-305 mOsM with sucrose if necessary. Internal solution contained (in mM): KCl (125), KF (10), EGTA (5), Na2ATP (5), MgCl2 (3.2), HEPES (5); pH was adjusted to 7.2 with KOH and the osmolarity was adjusted to 298-302 mOsM with sucrose.
Potassium channel activity was measured on the QPatch HTX (Sophion Bioscience) using QPlates with 48-wells/plate. Each cell was taken as an independent experiment and only one compound was tested per well. Potassium channel activity was elicited by holding at −80 mV and stepping to −30 mV for 2 s followed by a 100 ms pulse to −120 mV.
Single Concentration Screen:
Baseline conditions were obtained by recording 5 sweeps in the external solution only, this was repeated for three applications of the external solution. The effect of test compounds on elicited current was then assessed by recording 5 sweeps in the presence of a 3 μM compound solution. The steady-state current at the end of the 2 s pulse to −30 mV was measured to determine the fold increase from baseline.

Kv7.2/7.3 Activity: increase over baseline in current	Compound
+ (1.2-2.9 (+))	C[C@H](CC(=O)Nc1nc2ccc(C(C)(C)O)cc2n1C1CCC1)c1ccccc1 [Example 336, (R)-N-(1-cyclobutyl-6-(2-hydroxypropan-2-yl)-1H-benzo[d]imidazol-2-yl)-3-phenylbutanamide]
+ (1.2-2.9 (+))	CC(C)(O)c1ccc2nc(NC(=O)CC(C)(C)C(F)(F)F)n(C34CC(C3)C4)c2c1 [Example 404, N-(1-(bicyclo[1.1.1]pentan-1-yl)-6-(2-hydroxypropan-2-yl)-1H-benzo[d]imidazol-2-yl)-4,4,4-trifluoro-3,3-dimethylbutanamide]
++ (3-3.9 (++))	CC1(n2c(NC(=O)CC(C)(C)C(F)(F)F)nc3ccc(C#N)cc32)CCC1 [Example 361, N-(6-cyano-1-(1-methylcyclobutyl)-1H-benzo[d]imidazol-2-yl)-4,4,4-trifluoro-3,3-dimethylbutanamide]
O	CC(O)(CC(=O)Nc1nc2c(F)cc(C#N)cc2n1C(C)(C)C)c1cccc(F)c1 (single isomer, unassigned) [Example 339, N-(1-(tert-butyl)-6-cyano-4-fluoro-1H-benzo[d]imidazol-2-yl)-3-(3-fluorophenyl)-3-hydroxybutanamide]
+ (1.2-2.9 (+))	CC1(n2c(NC(=O)CC(O)(CF)CF)nc3ccc(OC(F)F)c(F)c32)CCC1 [Example 423, N-(6-(difluoromethoxy)-7-fluoro-1-(1-methylcyclobutyl)-1H-benzo[d]imidazol-2-yl)-4-fluoro-3-(fluoromethyl)-3-hydroxybutanamide]
++ (3-3.9 (++))	CC(C)(C)CC(=O)Nc1nc2cc(F)c(C(C)(C)O)c(F)c2n1C1CCC1 [Example 362, N-(1-cyclobutyl-5,7-difluoro-6-(2-hydroxypropan-2-yl)-1H-benzo[d]imidazol-2-yl)-3,3-dimethylbutanamide]
++ (3-3.9 (++))	CC(C)(C)CC(=O)Nc1nc2c(OC(F)F)cc(C#N)cc2n1C1(C)CCC1 [Example 381, N-(6-cyano-4-(difluoromethoxy)-1-(1-methylcyclobutyl)-1H-benzo[d]imidazol-2-yl)-3,3-dimethylbutanamide]
+ (1.2-2.9 (+))	CC1(CC(=O)Nc2nc3ccc(C(C)(C)O)cc3n2C2(C)CCC2)CC1 [Example 391, N-(6-(2-hydroxypropan-2-yl)-1-(1-methylcyclobutyl)-1H-benzo[d]imidazol-2-yl)-2-(1-methylcyclopropyl)acetamide]
+ (1.2-2.9 (+))	CC1(Cn2c(NC(=O)CC(C)(O)c3ccccc3)nc3ccc(C#N)cc32)CC1 (single isomer, unassigned) [Example 471, N-(6-cyano-1-((1-methylcyclopropyl)methyl)-1H-benzo[d]imidazol-2-yl)-3-hydroxy-3-phenylbutanamide]

Second part, the molecule before the results:

Compound	Kv7.2/7.3 Activity: increase over baseline in current
CC(O)(CC(=O)Nc1nc2ccc(C#N)cc2n1C1(C)CCC1)c1ccc(F)cc1F (single isomer, unassigned) [Example 460, N-(6-cyano-1-(1-methylcyclobutyl)-1H-benzo[d]imidazol-2-yl)-3-(2,4-difluorophenyl)-3-hydroxybutanamide]	++ (3-3.9 (++))
CC(C)(C)CC(=O)Nc1nc2c(F)cc(C#N)c(F)c2n1C(C)(C)C [Example 457, N-(1-(tert-butyl)-6-cyano-4,7-difluoro-1H-benzo[d]imidazol-2-yl)-3,3-dimethylbutanamide]	++ (3-3.9 (++))
CC(C)(C)CC(=O)Nc1nc2cc(F)cc(F)c2n1C1CCC1 [Example 357, N-(1-cyclobutyl-5,7-difluoro-1H-benzo[d]imidazol-2-yl)-3,3-dimethylbutanamide]	+++ (>4 (+++) fold increase over baseline)
CC(O)(CC(=O)Nc1nc2ccc(C#N)cc2n1C1CCC1)c1ccccc1F (single isomer, unassigned) [Example 452, N-(6-cyano-1-cyclobutyl-1H-benzo[d]imidazol-2-yl)-3-(2-fluorophenyl)-3-hydroxybutanamide]	O
CC(O)(CC(=O)Nc1nc2cc(F)c(C#N)cc2n1C1(C)CCC1)c1ccccc1F (single isomer, unassigned) [Example 373, N-(6-cyano-5-fluoro-1-(1-methylcyclobutyl)-1H-benzo[d]imidazol-2-yl)-3-(2-fluorophenyl)-3-hydroxybutanamide]	++ (3-3.9 (++))
CC(C)(CC(=O)Nc1nc2ccc(C#N)cc2n1C(C)(C)C(F)(F)F)C(F)(F)F [Example 484, N-(6-cyano-1-(1,1,1-trifluoro-2-methylpropan-2-yl)-1H-benzo[d]imidazol-2-yl)-4,4,4-trifluoro-3,3-dimethylbutanamide]	+ (1.2-2.9 (+))
CC(O)(CC(=O)Nc1nc2ccc(C#N)cc2n1CC(F)(F)F)c1ccccc1F (single isomer, unassigned) [Example 483, N-(6-cyano-1-(2,2,2-trifluoroethyl)-1H-benzo[d]imidazol-2-yl)-3-(2-fluorophenyl)-3-hydroxybutanamide]	++ (3-3.9 (++))
CC(C)(CC(=O)Nc1nc2ccc(OC(F)F)cc2n1C1(C)CCC1)C1CC1 [Example 434, 3-cyclopropyl-N-(6-(difluoromethoxy)-1-(1-methylcyclobutyl)-1H-benzo[d]imidazol-2-yl)-3-methylbutanamide]	+++ (>4 (+++) fold increase over baseline)
CC(C)(CC(=O)Nc1nc2ccc(C#N)cc2n1C(C)(C)C(F)(F)F)C1CC1 [Example 333, N-(6-cyano-1-(1,1,1-trifluoro-2-methylpropan-2-yl)-1H-benzo[d]imidazol-2-yl)-3-cyclopropyl-3-methylbutanamide]	++ (3-3.9 (++))
C[C@H](C(=O)Nc1nc2ccc(C(C)(C)O)cc2n1C1(C)CCC1)C(C)(C)C [Example 383, (S)-N-(6-(2-hydroxypropan-2-yl)-1-(1-methylcyclobutyl)-1H-benzo[d]imidazol-2-yl)-2,3,3-trimethylbutanamide]	++ (3-3.9 (++))
CC(O)(CC(=O)Nc1nc2cccc(C#N)c2n1C1(C)CCC1)c1ccccc1 (single isomer, unassigned) [Example 468, N-(7-cyano-1-(1-methylcyclobutyl)-1H-benzo[d]imidazol-2-yl)-3-hydroxy-3-phenylbutanamide]	+ (1.2-2.9 (+))
COCc1c(Cl)ccc2nc(NC(=O)CC(C)(C)C)n(C3CCC3)c12 [Example 399, N-(6-chloro-1-cyclobutyl-7-(methoxymethyl)-1H-benzo[d]imidazol-2-yl)-3,3-dimethylbutanamide]	+++ (>4 (+++) fold increase over baseline)
CC(C)(C)CC(=O)Nc1nc2ccc(C#N)cc2n1C(C)(C)C(F)(F)F [Example 401, N-(6-cyano-1-(1,1,1-trifluoro-2-methylpropan-2-yl)-1H-benzo[d]imidazol-2-yl)-3,3-dimethylbutanamide]	++ (3-3.9 (++))
CC1(n2c(NC(=O)CC(C)(C)C(F)(F)F)nc3c(OC(F)F)cc(C#N)cc32)CCC1 [Example 419, N-(6-cyano-4-(difluoromethoxy)-1-(1-methylcyclobutyl)-1H-benzo[d]imidazol-2-yl)-4,4,4-trifluoro-3,3-dimethylbutanamide]	+ (1.2-2.9 (+))
CC(C)(CC(=O)Nc1nc2c(F)cc(C#N)c(F)c2n1C1CCC1)C1CC1 [Example 464, N-(6-cyano-1-cyclobutyl-4,7-difluoro-1H-benzo[d]imidazol-2-yl)-3-cyclopropyl-3-methylbutanamide]	++ (3-3.9 (++))
